Active and inactive are the calls of the source.
Tests used:
[1] = CRF-BP/CRF-R2 complex antagonists, dose response, cell-based, uHTS hits, 384-well (AID 651639); assay type: functional, Homo sapiens; conditions: read-out: IC50_Mean
[2] = biological target: T1, Rac GTPase-activating protein 1 (Homo sapiens, UniProt Q9H0H5); experiment: MgcRacGAP GTPase-activating activity inhibitors, confirmation, biochemical, ADP Hunter fluorescence, primary and confirmatory (AID 624330); assay type: functional
T1 sequence (Q9H0H5 whole entry): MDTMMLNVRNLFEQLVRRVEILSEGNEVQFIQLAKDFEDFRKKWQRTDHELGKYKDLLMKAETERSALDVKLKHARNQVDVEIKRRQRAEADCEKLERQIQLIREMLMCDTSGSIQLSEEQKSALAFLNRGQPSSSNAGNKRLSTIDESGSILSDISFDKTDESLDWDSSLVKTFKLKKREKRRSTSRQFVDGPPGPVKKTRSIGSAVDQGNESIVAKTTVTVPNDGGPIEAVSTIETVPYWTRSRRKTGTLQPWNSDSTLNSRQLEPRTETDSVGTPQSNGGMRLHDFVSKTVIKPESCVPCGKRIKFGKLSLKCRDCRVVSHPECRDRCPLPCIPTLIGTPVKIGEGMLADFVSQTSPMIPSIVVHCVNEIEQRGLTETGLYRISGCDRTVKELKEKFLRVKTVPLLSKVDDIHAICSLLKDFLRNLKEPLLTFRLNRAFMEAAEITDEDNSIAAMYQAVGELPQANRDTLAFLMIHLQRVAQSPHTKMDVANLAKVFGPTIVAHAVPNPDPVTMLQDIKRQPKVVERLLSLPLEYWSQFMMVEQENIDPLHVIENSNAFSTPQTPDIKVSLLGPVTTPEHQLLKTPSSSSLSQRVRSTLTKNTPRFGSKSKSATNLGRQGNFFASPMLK

[3] = biological target: T2, Corticotropin-releasing factor receptor 2/Corticotropin-releasing factor-binding protein (Homo sapiens, UniProt P24387+Q13324); experiment: activators of CRF receptor 2 with binding protein – uHTS hits, confirmation (AID 602473); assay type: functional; conditions: read-out: EC50_Mean
T2 sequence (Q13324 whole entry): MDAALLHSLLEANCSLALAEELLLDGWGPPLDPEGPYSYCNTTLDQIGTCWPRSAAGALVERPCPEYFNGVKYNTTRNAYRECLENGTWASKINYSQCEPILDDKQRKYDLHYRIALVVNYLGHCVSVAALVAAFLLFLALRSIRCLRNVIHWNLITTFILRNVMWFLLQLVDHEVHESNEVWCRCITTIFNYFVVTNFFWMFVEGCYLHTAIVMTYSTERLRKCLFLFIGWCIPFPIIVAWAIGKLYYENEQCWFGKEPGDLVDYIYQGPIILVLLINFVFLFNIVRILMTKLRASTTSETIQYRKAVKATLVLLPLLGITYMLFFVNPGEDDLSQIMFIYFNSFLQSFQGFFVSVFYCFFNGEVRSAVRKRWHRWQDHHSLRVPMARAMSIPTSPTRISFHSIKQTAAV
T2 sequence (P24387 whole entry): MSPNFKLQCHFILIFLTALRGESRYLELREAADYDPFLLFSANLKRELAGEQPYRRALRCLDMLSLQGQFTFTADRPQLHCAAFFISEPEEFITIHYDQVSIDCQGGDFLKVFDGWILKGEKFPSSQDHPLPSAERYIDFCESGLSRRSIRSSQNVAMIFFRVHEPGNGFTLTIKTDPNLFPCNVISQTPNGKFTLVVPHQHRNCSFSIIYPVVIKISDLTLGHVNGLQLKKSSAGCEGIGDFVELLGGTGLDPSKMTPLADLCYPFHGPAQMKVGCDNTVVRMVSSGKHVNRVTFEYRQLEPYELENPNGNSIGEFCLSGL

[4] = biological target: T2, Corticotropin-releasing factor receptor 2/Corticotropin-releasing factor-binding protein; experiment: Dose Response confirmation of uHTS hits for small molecule antagonists of the CRF-binding protein and CRF-R2 receptor complex.; assay type: functional; conditions: read-out: IC50_Mean
[5] = biological target: Fructose-bisphosphate aldolase (Mycobacterium tuberculosis, UniProt P9WQA3); experiment: Fluorescence-based biochemical high throughput dose response assay for inhibitors of the fructose-bisphosphate aldolase (FBA) of M. tuberculosis.; assay type: functional
HEK293 = experiment: inhibitors of LMP1-driven NF-kB reporter, dose response, cell-based, HEK293, luciferase, cherry-pick (AID 588343); assay type: functional; conditions: Homo sapiens
cells = assay type: functional, cell-based
[6] = biological target: T3, Nuclear receptor subfamily 0 group B member 1 (Homo sapiens, UniProt P51843); assay type: functional, cell-based;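 also: HEK293T cells transfected with SF-1 and DAX-1 plus StAR promoter luciferase reporter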
T3 sequence (P51843 whole entry): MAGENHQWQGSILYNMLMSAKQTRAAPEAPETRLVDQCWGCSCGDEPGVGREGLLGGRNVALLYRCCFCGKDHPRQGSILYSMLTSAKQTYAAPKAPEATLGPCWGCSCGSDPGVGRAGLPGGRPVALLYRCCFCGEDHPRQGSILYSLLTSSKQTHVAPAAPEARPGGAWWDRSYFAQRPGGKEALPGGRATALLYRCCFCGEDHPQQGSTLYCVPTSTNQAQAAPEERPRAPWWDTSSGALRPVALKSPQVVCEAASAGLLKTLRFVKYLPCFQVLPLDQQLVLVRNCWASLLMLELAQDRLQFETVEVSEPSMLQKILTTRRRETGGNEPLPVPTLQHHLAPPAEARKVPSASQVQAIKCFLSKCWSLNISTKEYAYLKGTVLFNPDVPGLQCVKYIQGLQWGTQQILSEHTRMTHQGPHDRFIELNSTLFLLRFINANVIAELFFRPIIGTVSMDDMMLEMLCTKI

[7] = Luminescence Cell-Based Dose Retest to Confirm Inhibitors of Cancer Stem Cells. [Related pubchem assays (depositor defined):AID2717, AID2721]; assay type: functional; conditions: Homo sapiens
[8] = biological target: T4, Methionyl-tRNA synthetase, putative (Trypanosoma brucei brucei, UniProt Q38C91); assay type: functional, Trypanosoma brucei brucei strain 927/4 GUTat10.1
T4 sequence (Q38C91 whole entry): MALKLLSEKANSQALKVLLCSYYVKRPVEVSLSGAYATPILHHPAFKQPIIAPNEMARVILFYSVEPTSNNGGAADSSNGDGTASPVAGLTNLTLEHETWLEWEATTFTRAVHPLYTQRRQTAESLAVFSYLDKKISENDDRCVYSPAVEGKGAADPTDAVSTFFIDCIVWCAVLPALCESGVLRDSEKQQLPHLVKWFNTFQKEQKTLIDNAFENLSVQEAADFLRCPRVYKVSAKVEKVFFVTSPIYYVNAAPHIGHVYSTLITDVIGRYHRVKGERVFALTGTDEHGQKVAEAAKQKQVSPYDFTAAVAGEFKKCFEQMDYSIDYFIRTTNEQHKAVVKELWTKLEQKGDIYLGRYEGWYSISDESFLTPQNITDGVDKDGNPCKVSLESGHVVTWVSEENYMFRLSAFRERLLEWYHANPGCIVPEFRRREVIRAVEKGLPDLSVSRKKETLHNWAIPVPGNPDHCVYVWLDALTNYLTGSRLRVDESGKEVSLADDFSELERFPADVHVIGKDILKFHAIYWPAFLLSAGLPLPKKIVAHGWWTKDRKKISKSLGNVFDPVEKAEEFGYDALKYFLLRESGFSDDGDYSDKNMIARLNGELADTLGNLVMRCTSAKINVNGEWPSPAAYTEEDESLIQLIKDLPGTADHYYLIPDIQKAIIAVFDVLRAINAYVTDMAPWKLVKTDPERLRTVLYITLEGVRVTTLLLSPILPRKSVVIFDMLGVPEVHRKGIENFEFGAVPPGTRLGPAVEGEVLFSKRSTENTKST

[9] = biological target: T4, Methionyl-tRNA synthetase, putative; assay type: functional, Trypanosoma brucei brucei strain 927/4 GUTat10.1; remark: listed apart in the source
[10] = Counterscreen for inhibitors of Trypanosoma brucei methionyl tRNA synthetase (MetRS): Luminescence-based cell-based high throughput dose response assay to identify compounds that are cytotoxic to Jurkat human T lymphocyte cells.; assay type: functional
[11] = cytotoxicity in HMLE control line with eGFP shRNA, dose response, counter-screen for HMLE_sh_ECad selective toxicity project, cell-based, HMLE_sh_eGFP, luminescence (AID 463074); assay type: functional, Homo sapiens;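 also: HMLE human mammary epithelial cells expressing control shRNA against eGFP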
[12] = biological target: T5, Sentrin-specific protease 1 (Homo sapiens, UniProt Q9P0U3); experiment: Dose response confirmation of small molecule inhibitors of the catalytic domain of the SUMO protease, SENP1 in a FRET assay.; assay type: functional; conditions: read-out: IC50_Mean
T5 sequence (Q9P0U3 whole entry): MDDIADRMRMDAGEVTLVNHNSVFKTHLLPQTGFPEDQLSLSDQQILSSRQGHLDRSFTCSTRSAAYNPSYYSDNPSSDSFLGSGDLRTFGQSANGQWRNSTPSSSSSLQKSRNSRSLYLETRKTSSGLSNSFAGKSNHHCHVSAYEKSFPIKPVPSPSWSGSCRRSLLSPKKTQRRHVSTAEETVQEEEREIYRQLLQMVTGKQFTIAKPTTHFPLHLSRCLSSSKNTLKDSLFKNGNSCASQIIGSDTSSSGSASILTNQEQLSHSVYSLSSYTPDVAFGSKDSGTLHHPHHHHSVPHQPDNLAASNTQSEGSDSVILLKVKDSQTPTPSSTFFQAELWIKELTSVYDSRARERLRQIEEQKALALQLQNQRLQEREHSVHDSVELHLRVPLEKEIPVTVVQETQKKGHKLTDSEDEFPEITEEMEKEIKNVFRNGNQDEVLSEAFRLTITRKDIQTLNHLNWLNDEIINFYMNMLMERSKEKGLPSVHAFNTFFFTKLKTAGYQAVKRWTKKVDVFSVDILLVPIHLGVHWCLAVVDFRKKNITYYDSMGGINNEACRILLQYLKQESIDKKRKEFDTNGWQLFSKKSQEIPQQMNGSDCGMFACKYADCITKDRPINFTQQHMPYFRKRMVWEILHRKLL

[13] = biological target: T5, Sentrin-specific protease 1; experiment: potency of human SENP1 inhibitors, dose response, biochemical, kinetic FRET (AID 651697); assay type: functional; conditions: read-out: IC50_Mean

Chain of Fructose-bisphosphate aldolase (P9WQA3 whole entry): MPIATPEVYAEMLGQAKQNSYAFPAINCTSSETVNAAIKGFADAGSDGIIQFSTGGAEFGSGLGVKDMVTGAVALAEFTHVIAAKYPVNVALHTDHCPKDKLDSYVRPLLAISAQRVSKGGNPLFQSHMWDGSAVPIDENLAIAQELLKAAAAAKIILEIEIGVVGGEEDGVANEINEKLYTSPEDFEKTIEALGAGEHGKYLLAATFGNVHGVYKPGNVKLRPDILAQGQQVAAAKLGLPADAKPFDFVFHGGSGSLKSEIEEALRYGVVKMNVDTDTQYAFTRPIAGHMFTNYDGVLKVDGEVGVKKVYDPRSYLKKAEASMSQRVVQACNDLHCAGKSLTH

Which IC50 [1] does the source give for `CCOc1cc(/C=N/NC(=O)c2ccccc2OCc2ccc(F)cc2)ccc1O` here?
Its IC50 is > 20 µM (inactive).

And the IC50 [2]?
The IC50 was 78.5 µM (active).

And the EC50 [3]?
The EC50 was > 53 µM (inactive).

And the IC50 [4]?
Its IC50 is 4.05 µM (active).

Which IC50 [5] does the source give for `Cc1c(C)c2cc(Cl)c(OCC(=O)NCCCN3CCCC3=O)cc2oc1=O` here?
The IC50 was 3.71 µM (active).

Which AC50 (HEK293) does the source give for `Cc1ccc(NC(=O)C(=O)Nc2ccccn2)cc1` here?
The AC50 was 2.59 µM (active).

What about the IC50 (cells) of the same compound?
Its IC50 is > 67.6 µM (inactive).

What about the IC50 [6] of the same compound?
Its IC50 is > 67.6 µM (inactive).

For `O=C(COc1ccc(Cl)cc1Cl)N/N=C/c1ccc[nH]1`, which AC50 [7] is on record?
Its AC50 is 1.92 µM (active).

What about the IC50 [8] of the same compound?
The IC50 was 13.2 µM (inactive).

What about the IC50 [9] of the same compound?
Its IC50 is 22.4 µM (inactive).

And the IC50 [10]?
Its IC50 is 22.2 µM (inactive).

And the AC50 [11]?
Its AC50 is 20.7 µM (active).

For `CN(C)CCNc1cccc2sc3ccc(O)cc3c(=O)c12`, which IC50 [12] is on record?
The IC50 was 26 µM (inactive).

What about the IC50 [13] of the same compound?
Its IC50 is 37.8 µM (inactive).

Source: ChEMBL document CHEMBL1201862, “PubChem BioAssay data set” (2004)
